Assay results from ChEMBL document CHEMBL3046440, “Synthesis and antitumor evaluation of some 1,3,4-oxadiazole-2(3H)-thione and 1,2,4-triazole-5(1H)-thione derivatives” (Med Chem Res, 2012).

Tested on: K562
Test: Cytotoxicity against Homo sapiens (human) K562 cells after 24 hr by MTT assay
Format: functional, cell-based
Conditions: K562, 24 h

Structure (SMILES) | IC50 [µM]
C[C@H](NC(=O)c1ccccc1)c1n[nH]c(=S)o1 | 377
C[C@H](NC(=O)c1ccc(Cl)cc1)c1n[nH]c(=S)o1 | 31.1
CC(C)[C@H](NC(=O)c1ccccc1)c1n[nH]c(=S)o1 | 245
CC(C)[C@H](NC(=O)c1ccc([N+](=O)[O-])cc1)c1n[nH]c(=S)o1 | 43.6
C[C@H](NC(=O)c1cccnc1)c1n[nH]c(=S)o1 | 739
C[C@H](NC(=O)Cc1ccccc1)c1n[nH]c(=S)o1 | 1020
COc1ccc(/C=C/C(=O)N[C@H](C)c2n[nH]c(=S)o2)cc1 | 330
O=C(/C=C/c1ccccc1)N[C@H](CO)c1n[nH]c(=S)o1 | 435
C[C@H](NC(=O)c1ccccc1)c1n[nH]c(=S)n1N | 372
C[C@H](NC(=O)c1ccc(Cl)cc1)c1n[nH]c(=S)n1N | 98.6
CC(C)[C@H](NC(=O)c1ccccc1)c1n[nH]c(=S)n1N | 154
NC(=O)NO [HYDROXYUREA] | 688
